This is an account of results in the NIST ThermoML archive (doi:10.1021/je900599q).

The conditions of the series: 298.2 K; 101.33 kPa; Liquid; Pycnometric method.

± gives the expanded uncertainty stated by the source.

As usually defined, the mass density is the mass of a sample divided by its volume. For the compound `CO` [methanol], the mass density was 796 ± 1 kg/m3.
